Measured values taken from ChEMBL document CHEMBL1201862, “PubChem BioAssay data set” (2004).
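48-hour exposure; five concentrations; linearly interpolated endpoints. GI50 = concentration required for 50% inhibition of growth.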 Calls of active or inactive are those of the source. No stated cut-off is given here; in the data, active = GI50 up to about 1.1 µM and inactive = higher.

Columns and labels:
Experiment in all cases: inhibition of tumour cell growth, NCI panel, 48 h
786-0 = system: 786-0
A549 = system: A549
ACHN = system: ACHN
CAKI-1 = system: CAKI-1
COLO 205 = system: COLO 205
DMS-114 = system: DMS-114
DMS-273 = system: DMS-273
EKVX = system: EKVX
HCC 2998 = system: HCC 2998
HCT-116 = system: HCT-116
HL-60 = system: HL-60
HOP-18 = system: HOP-18
HOP-62 = system: HOP-62
HOP-92 = system: HOP-92
HT-29 = system: HT-29
KM-20L2 = system: KM-20L2
KM12 = system: KM12
LOX IMVI = system: LOX IMVI
LXFL 529 = system: LXFL 529
M14 = system: M14
M19-MEL = system: M19-MEL
Malme-3M = system: Malme-3M
NCI-H226 = system: NCI-H226
NCI-H23 = system: NCI-H23
NCI-H460 = system: NCI-H460
NCI-H522 = system: NCI-H522
OVCAR-4 = system: OVCAR-4
OVCAR-5 = system: OVCAR-5
OVCAR-8 = system: OVCAR-8
RXF 393 = system: RXF 393
SF-268 = system: SF-268
SF-295 = system: SF-295
SF-539 = system: SF-539
SK-MEL-28 = system: SK-MEL-28
SK-MEL-2 = system: SK-MEL-2
SN12C = system: SN12C
SNB-19 = system: SNB-19
SNB-75 = system: SNB-75
SNB-78 = system: SNB-78
SW-620 = system: SW-620
TK-10 = system: TK-10
U-251 = system: U-251
UACC-257 = system: UACC-257
UO-31 = system: UO-31
XF498 = system: XF498

Measured: GI50

CCc1cc(C)cc2[n+]1CC=C2.[O-][Cl+3]([O-])([O-])[O-]
inactive: 786-0 27.5 µM | A549 24.6 µM | ACHN 10.4 µM | CAKI-1 28.2 µM | COLO 205 21.9 µM | DMS-114 10 µM | EKVX 25.4 µM | HCC 2998 43.6 µM | HCT-116 18.2 µM | HOP-62 18.7 µM | HOP-92 11.6 µM | HT-29 19.4 µM | KM-20L2 21.5 µM | KM12 32.9 µM | LOX IMVI 32.7 µM | LXFL 529 4.17 µM | M14 22.3 µM | M19-MEL 13.8 µM | Malme-3M 15.9 µM | NCI-H226 15.7 µM | NCI-H23 13.9 µM | NCI-H460 27.3 µM | NCI-H522 13.1 µM | OVCAR-4 34.1 µM | OVCAR-5 15.5 µM | OVCAR-8 3.97 µM | RXF 393 > 100 µM | SF-268 32.5 µM | SF-295 31.6 µM | SF-539 26.7 µM | SK-MEL-28 27.2 µM | SK-MEL-2 15.6 µM | SN12C 22.2 µM | SNB-19 28.6 µM | SNB-75 22.9 µM | SNB-78 33.9 µM | SW-620 7.33 µM | TK-10 44.1 µM | U-251 39.5 µM | UACC-257 3.55 µM | UO-31 16.9 µM | XF498 2.56 µM
active: DMS-273 0.593 µM | HL-60 0.125 µM | HOP-18 0.0676 µM
